Test results as given in patent publication US12281122B1, “PI3K inhibitors” (Cogent Biosciences, Inc., priority 2023, dated 2025).
Like-named read-outs stand apart in the source and are kept apart here.

What was measured:
[1] = tested on: T47D (PI3Kα-H1047R) cell line; test: HTRF phospho-AKT(S473) cell assay in T47D cells; assay type: cell-based, human; details: Homo sapiens; T47D (PI3Kα-H1047R) cells, HTRF phospho-AKT(S473), 2 hours compound incubation
Summary of the method: (§1)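 T47D (PI3Kα-H1047R; RPMI, 10% FBS, insulin) and SKBR3 (wild-type PI3Kα; McCoy's 5A, 10% FBS) cells treated 2 h at 37 °C with 12-point 1:3 dilutions, top 5 μM and 10 μM respectively, ≤0.5% DMSO. SKBR3 stimulated with 70 ng/ml PDGF-BB for the last 15 min; lysate pAKT(S473) by HTRF, IC50 from curves.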

PI3Kα = PI3Kα (Homo sapiens, UniProt P42336); test: PI3Kα enzyme assay (Transcreener ADP2 TR-FRET Red Assay); assay type: biochemical; details: purified recombinant full-length protein; 2 hours pre-incubation with compound; read-out: PI3Kα WT IC50
PI3Kα, sequence (P42336 whole entry): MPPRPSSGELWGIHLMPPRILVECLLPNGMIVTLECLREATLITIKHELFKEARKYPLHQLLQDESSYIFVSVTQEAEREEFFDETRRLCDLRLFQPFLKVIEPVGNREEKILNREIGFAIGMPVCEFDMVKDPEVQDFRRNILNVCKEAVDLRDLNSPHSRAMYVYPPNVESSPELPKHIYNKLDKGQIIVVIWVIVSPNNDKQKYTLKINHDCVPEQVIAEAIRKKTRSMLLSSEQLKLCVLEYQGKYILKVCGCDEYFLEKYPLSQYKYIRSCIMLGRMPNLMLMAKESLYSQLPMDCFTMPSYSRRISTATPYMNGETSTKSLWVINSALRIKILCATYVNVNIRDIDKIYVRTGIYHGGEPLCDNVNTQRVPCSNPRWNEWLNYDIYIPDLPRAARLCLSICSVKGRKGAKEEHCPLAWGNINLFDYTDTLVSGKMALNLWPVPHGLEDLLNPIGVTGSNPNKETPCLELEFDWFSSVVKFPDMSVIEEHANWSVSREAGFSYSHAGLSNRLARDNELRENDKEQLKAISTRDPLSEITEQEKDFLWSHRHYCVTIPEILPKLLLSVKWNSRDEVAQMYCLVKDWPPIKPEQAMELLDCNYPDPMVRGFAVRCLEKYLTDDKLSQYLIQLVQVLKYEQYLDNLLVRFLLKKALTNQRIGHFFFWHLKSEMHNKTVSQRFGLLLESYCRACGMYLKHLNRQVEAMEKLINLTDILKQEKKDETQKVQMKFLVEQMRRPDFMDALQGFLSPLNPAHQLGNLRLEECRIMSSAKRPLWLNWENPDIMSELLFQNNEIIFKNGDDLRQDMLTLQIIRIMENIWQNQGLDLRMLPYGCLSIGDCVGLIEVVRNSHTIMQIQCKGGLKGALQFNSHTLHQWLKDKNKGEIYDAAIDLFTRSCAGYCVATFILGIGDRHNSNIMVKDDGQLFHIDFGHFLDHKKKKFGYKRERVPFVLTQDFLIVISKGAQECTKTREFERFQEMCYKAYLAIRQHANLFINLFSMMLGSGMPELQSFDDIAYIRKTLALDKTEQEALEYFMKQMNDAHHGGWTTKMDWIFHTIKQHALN
PI3Kα, sequence (P27986 2-724 partner): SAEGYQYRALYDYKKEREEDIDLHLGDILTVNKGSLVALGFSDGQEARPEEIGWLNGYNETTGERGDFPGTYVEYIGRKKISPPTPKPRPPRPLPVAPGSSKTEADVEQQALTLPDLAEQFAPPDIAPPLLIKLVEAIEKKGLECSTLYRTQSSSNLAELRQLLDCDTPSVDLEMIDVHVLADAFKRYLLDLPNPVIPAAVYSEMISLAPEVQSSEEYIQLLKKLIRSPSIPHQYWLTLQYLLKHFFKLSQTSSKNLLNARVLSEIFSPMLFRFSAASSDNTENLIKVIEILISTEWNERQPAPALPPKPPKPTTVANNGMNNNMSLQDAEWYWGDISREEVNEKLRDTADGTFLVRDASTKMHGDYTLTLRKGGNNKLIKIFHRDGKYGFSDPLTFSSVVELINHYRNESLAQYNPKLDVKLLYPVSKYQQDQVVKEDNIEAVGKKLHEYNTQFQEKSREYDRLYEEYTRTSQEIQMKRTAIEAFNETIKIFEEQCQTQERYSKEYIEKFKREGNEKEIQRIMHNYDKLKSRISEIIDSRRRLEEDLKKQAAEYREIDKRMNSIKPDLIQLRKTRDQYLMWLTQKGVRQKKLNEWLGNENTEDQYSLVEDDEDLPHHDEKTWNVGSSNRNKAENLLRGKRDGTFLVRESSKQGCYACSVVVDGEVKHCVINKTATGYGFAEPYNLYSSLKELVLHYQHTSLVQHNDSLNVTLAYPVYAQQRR
Summary of the method: (§2)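 IC50 taken at 50 POC from a four-parameter logistic fit of TR-FRET (665/615 nm) ADP signal. Reactions used full-length recombinant enzyme, compound pre-incubation for 2 h, then 60 min with ATP and PI(4,5)P2 diC8 substrate at room temperature, pH 7.5 HEPES buffer with 25 mM MgCl2; compounds tested from 50,000 to 0.85 nM.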

Mouse PK, IV and PO = details: in vivo; for clearance: read-out: PK-Mouse: IV Cl; for bioavailability: read-out: PK-Mouse: PO F (%)
[2] = tested on: SKBR3 (PI3Kα-Wild Type) cell line; test: HTRF phospho-AKT(S473) cell assay in SKBR3 cells; assay type: cell-based, human; details: Homo sapiens, SK-BR-3; SKBR3 (PI3Kα-Wild Type) cells, HTRF phospho-AKT(S473), 2 hours compound incubation, PDGF-BB stimulated
Summary of the method: as §1

PI3Kα H1047R = PI3Kα H1047R (Homo sapiens, UniProt P42336, H1047R); test: PI3Kα H1047R enzyme assay (Transcreener ADP2 TR-FRET Red Assay); assay type: biochemical; details: purified recombinant full-length protein; 2 hours pre-incubation with compound
PI3Kα H1047R, sequence (P42336 whole entry H1047R): as the sequence (P42336 whole entry) above, with H1047R counted along it
PI3Kα H1047R, sequence (P27986 2-724 partner): as the sequence (P27986 2-724 partner) above
Summary of the method: as §2

[3] = IV dose 3 mg/kg, read-out: PK-Mouse: IV-AUCinf
[4] = PO dose 30 mg/kg, 20% Captisol (aq), fed
[5] = PO dose 30 mg/kg, 20% Captisol (aq), fed, read-out: PK-Mouse: PO AUCinf

Row | IC50 [1] [µM] | IC50 (PI3Kα) [µM] | clearance (Mouse PK, IV and PO; IV dose 3 mg/kg) [mL/min/kg] | AUC(0-inf) (Mouse PK, IV and PO; [3]) [ng·h/mL] | Cmax (Mouse PK, IV and PO; [4]) [ng/mL] | AUC(0-inf) (Mouse PK, IV and PO; [5]) [ng·h/mL] | bioavailability (Mouse PK, IV and PO; [4]) [%] | IC50 [2] [µM] | IC50 (PI3Kα H1047R) [µM] | SMILES
1 | < 0.25 | ≥ 1 | 0.74 | 67500 | 35500 | 548000 | 81 | 1 to 5 | 0.5 to 1 | Cc1cc([C@@H](C)Nc2ccc(Cl)nc2C(=O)NS(C)(=O)=O)c2nc(N3Cc4ccc(F)cc4C3)n(C)c(=O)c2c1 [Compound 1, (R)-6-chloro-3-((1-(2-(5-fluoroisoindolin-2-yl)-3,6-dimethyl-4-oxo-3,4-dihydroquinazolin-8-yl)ethyl)amino)-N-(methylsulfonyl)picolinamide]
2 |  |  | 24.3 | 2070 | 2490 | 8850 | 43 |  |  | Cc1cc([C@@H](C)Nc2ccc(Cl)nc2C(=O)O)c2nc(N3Cc4ccc(F)cc4C3)n(C)c(=O)c2c1 [Compound 1 acid derivative, (R)-6-chloro-3-((1-(2-(5-fluoroisoindolin-2-yl)-3,6-dimethyl-4-oxo-3,4-dihydroquinazolin-8-yl)ethyl)amino)picolinic acid, reference compound]
3 | 0.25 to 0.5 | ≥ 1 |  |  |  |  |  | 1 to 5 | 0.5 to 1 | Cc1cc([C@@H](C)Nc2ccc(Cl)nc2C(=O)NS(C)(=O)=O)c2nc(N3CC4(C3)CC(F)(F)C4)n(C)c(=O)c2c1 [Compound 9, (R)-6-chloro-3-((1-(2-(6,6-difluoro-2-azaspiro[3.3]heptan-2-yl)-3,6-dimethyl-4-oxo-3,4-dihydroquinazolin-8-yl)ethyl)amino)-N-(methylsulfonyl) picolinamide]
